Measured values taken from the supplement of paper PMC10949913.

Experiments:
Settings in all cases: 48 h
[1] = system: CU-ACC2; experiment: AC50 viability; higher = less potent
In short: (§1)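 Three adrenocortical carcinoma cell lines were exposed for 48 h to library compounds at 11 concentrations in 1,536-well plates, then read by CellTiter-Glo luminescence. Signals were scaled per plate against vehicle and empty-well controls. From fitted concentration-response curves of inhibitory or non-responding classes alone, AC50 and area under the curve were obtained.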

[2] = system: CU-ACC1; experiment: area under concentration-response curve (viability) (AUC (a.u.)); higher = less active
In short: as §1

[3] = system: CU-ACC2; experiment: as above
In short: as §1

[4] = system: NCI-H295R; experiment: as above
In short: as §1

Compound: CCC1=C2CN3C(=O)\C4=C(/C=C3/C2=NC5=CC=C(O)C=C15)[C@@](O)(CC)C(=O)OC4
- AC50 viability [1]: 0.468 µM
- area under concentration-response curve [2]: 401
- area under concentration-response curve [3]: 447
- area under concentration-response curve [4]: 524

Compound: Cn1ncc(NC(=O)c2nc(-c3c(F)cccc3F)sc2N)c1N1CC[C@@H](N)[C@H](F)CC1
- AC50 viability [1]: 18.6 µM
- area under concentration-response curve [2]: 525
- area under concentration-response curve [3]: 500
- area under concentration-response curve [4]: 516

Compound: C/C(=N\NC(=S)N1CCC1)c1ccccn1
- AC50 viability [1]: 0.417 µM
- area under concentration-response curve [2]: 292
- area under concentration-response curve [3]: 453
- area under concentration-response curve [4]: 396

Compound: NC(=O)c1ccc2[nH]ccc2c1
- AC50 viability [1]: 0.59 µM
- area under concentration-response curve [2]: 345
- area under concentration-response curve [3]: 360
- area under concentration-response curve [4]: 395

Compound: N#Cc1ccnc(Nc2cc(C3CCN(C4COC4)CC3)cc(N3CCC(F)(F)C3)n2)c1
- AC50 viability [1]: 1.66 µM
- area under concentration-response curve [2]: 458
- area under concentration-response curve [3]: 467
- area under concentration-response curve [4]: 471

Compound: c1cc(CN2CCCNCCNCCCNCC2)ccc1CN1CCCNCCNCCCNCC1
- AC50 viability [1]: 0.0934 µM
- area under concentration-response curve [2]: 336
- area under concentration-response curve [3]: 337
- area under concentration-response curve [4]: 294

Compound: CC1(C)SCCN([S+](=O)([O-])c2ccc(OCC#CCO)cc2)[C@H]1C(=O)NO
- AC50 viability [1]: 2.95 µM
- area under concentration-response curve [2]: 446
- area under concentration-response curve [3]: 437
- area under concentration-response curve [4]: 421

Compound: Cc1cnc(C(=O)NCCc2ccc([S+](=O)([O-])NC(=O)NC3CCCCC3)cc2)cn1
- AC50 viability [1]: 33.2 µM
- area under concentration-response curve [2]: 355
- area under concentration-response curve [3]: 404

Compound: Cc1c(NC(=O)OC[C@@H]2COCCN2)cn2ncnc(Nc3ccc4c(cnn4Cc4cccc(F)c4)c3)c12
- AC50 viability [1]: 18.6 µM
- area under concentration-response curve [2]: 393
- area under concentration-response curve [3]: 544

Compound: CNCc1ccc(-c2[nH]c3cc(F)cc4c3c2CCNC4=O)cc1
- AC50 viability [1]: 26.3 µM
- area under concentration-response curve [2]: 416
- area under concentration-response curve [3]: 495

Compound: CNC(=O)c1cccc2cc(Oc3ccnc4cc(OCC5(N)CC5)c(OC)cc34)ccc12
- AC50 viability [1]: 1.66 µM
- area under concentration-response curve [2]: 356
- area under concentration-response curve [3]: 305

Compound: C[C@@H](N)c1ccc(C(=O)Nc2ccnc3[nH]ccc23)cc1
- AC50 viability [1]: 2.63 µM
- area under concentration-response curve [2]: 349
- area under concentration-response curve [3]: 297

Compound: CO[C@@H]1C(N(C)C(=O)c2ccccc2)C[C@H]2O[C@]1(C)n1c3ccccc3c3c4c(c5c6ccccc6n2c5c31)C(=O)NC4=O (stereo not given in full)
- AC50 viability [1]: 0.186 µM
- area under concentration-response curve [2]: 362
- area under concentration-response curve [3]: 286

Compound: O=C(CCCCCCNC(=O)c1cnc(N(c2ccccc2)c2ccccc2Cl)nc1)NO
- AC50 viability [1]: 11.8 µM
- area under concentration-response curve [2]: 464
- area under concentration-response curve [3]: 502

Compound: Cc1cccc(-c2[nH]c(C(C)(C)C)nc2-c2ccc3nccnc3c2)n1
- AC50 viability [1]: 0.263 µM
- area under concentration-response curve [2]: 293
- area under concentration-response curve [3]: 331

Compound: [2H]C([2H])([2H])C(O)([C@@H](C)/C=C/[C@@H](C)[C@H]1CC[C@H]2/C(=C/C=C3C[C@@H](O)C[C@H](O)C3)CCC[C@]12C)C([2H])([2H])[2H]
- AC50 viability [1]: 0.235 µM
- area under concentration-response curve [2]: 347
- area under concentration-response curve [3]: 309

Compound: C=CC(=O)Nc1cccc(Nc2nc(Nc3ccc(OCCOC)cc3)ncc2F)c1
- AC50 viability [1]: 20.9 µM
- area under concentration-response curve [3]: 597
- area under concentration-response curve [4]: 545

Compound: O=C(NCCCNc1nc(Nc2cccc(CN3CCOCC3)c2)ncc1C1CC1)C1CCC1
- AC50 viability [1]: 33.2 µM
- area under concentration-response curve [3]: 452
- area under concentration-response curve [4]: 220

Compound: COc1ccc2c(c1)[C@]1(C[C@H]1c1ccc3c(/C=C/c4ccc(CN5C[C@@H](C)O[C@@H](C)C5)cc4)n[nH]c3c1)C(=O)N2
- AC50 viability [1]: 1.86 µM
- area under concentration-response curve [2]: 384
- area under concentration-response curve [3]: 344

Compound: CC#CC(=O)N1CC[C@@H](n2c(=O)n(-c3ccc(Oc4ccccc4)cc3)c3c(N)ncnc32)C1
- AC50 viability [1]: 13.2 µM
- area under concentration-response curve [2]: 425
- area under concentration-response curve [3]: 428

Compound: CCOC(=O)c1ccnc(CNCC(=O)N(CC)CCN(C)C)c1
- AC50 viability [1]: 0.661 µM
- area under concentration-response curve [2]: 338
- area under concentration-response curve [3]: 339

Compound: CCN1C(=O)\C(=C/C2=CN=C(NCCC3CCN(C)CC3)N=C12)C4=CC=C(C=C4Cl)C5=CN=CC(=N5)C
- AC50 viability [1]: 2.63 µM
- area under concentration-response curve [2]: 645
- area under concentration-response curve [3]: 624

Compound: CONC(=O)c1ccccc1Nc1cc(Nc2cc(C)nn2C(C)C)ncc1Cl
- AC50 viability [1]: 16.6 µM
- area under concentration-response curve [2]: 455
- area under concentration-response curve [3]: 459

Compound: C=CC[C@@H]1/C=C(\C)C[C@H](C)C[C@H](OC)[C@H]2O[C@@](O)(C(=O)C(=O)N3CCCC[C@H]3C(=O)O[C@H](/C(C)=C/[C@@H]3CC[C@@H](O)[C@H](OC)C3)[C@H](C)[C@@H](O)CC1=O)[C@H](C)C[C@@H]2OC
- AC50 viability [1]: 18.6 µM
- area under concentration-response curve [2]: 383
- area under concentration-response curve [3]: 390

Compound: Cc1[nH]c(/C=C2\C(=O)Nc3ccc(F)cc32)c(C)c1C(=O)NCCN1CCCC1
- AC50 viability [1]: 14.4 µM
- area under concentration-response curve [2]: 522
- area under concentration-response curve [3]: 525

Compound: COc1cc(Nc2cnc(C#N)c(O[C@H](C)CN(C)C)n2)ncc1-c1cnn(C)c1
- AC50 viability [1]: 10.5 µM
- area under concentration-response curve [2]: 312
- area under concentration-response curve [3]: 399

Compound: CC(C)[C@H](CO)Nc1nc(Nc2cccc(Cl)c2)c2ncn(C(C)C)c2n1
- AC50 viability [1]: 29.5 µM
- area under concentration-response curve [2]: 551
- area under concentration-response curve [3]: 591

Compound: Fc1ccc(-c2nc(-c3ccccc3F)[nH]c2-c2ccncc2)cc1
- AC50 viability [1]: 33.2 µM
- area under concentration-response curve [2]: 336
- area under concentration-response curve [3]: 399

Compound: CCN(CC)CCOc1ccc(/C(=C(\Cl)c2ccccc2)c2ccccc2)cc1
- AC50 viability [1]: 10.5 µM
- area under concentration-response curve [3]: 203
- area under concentration-response curve [4]: 131

Compound: C[C@H](NC(=O)[C@@H]1C[C@@H](O)CN1C(=O)[C@@H](NC(=O)COCCCOCCNC(=O)C[C@@H]2\N=C(C3=CC=C(Cl)C=C3)/C4=C(SC(=C4C)C)[N]5C(=NN=C25)C)C(C)(C)C)C6=CC=C(C=C6)C7=C(C)N=CS7
- AC50 viability [1]: 8.33 µM
- area under concentration-response curve [2]: 474
- area under concentration-response curve [3]: 478

Compound: CC(C)n1cnc2c(NCCc3ccc(O)cc3)nc(-c3csc4ccccc34)nc21
- AC50 viability [1]: 9.34 µM
- area under concentration-response curve [2]: 335
- area under concentration-response curve [3]: 325

Compound: C[C@]1(O)CC(C1)C2=NC(=C3[N]2C=CN=C3N)C4=CC5=C(C=C4)C=CC(=N5)C6=CC=CC=C6 (stereo not given)
- AC50 viability [1]: 18.6 µM
- area under concentration-response curve [3]: 411
- area under concentration-response curve [4]: 373

Compound: O=C(Nc1ccc([S+](=O)([O-])N2CCOCC2)cc1)c1cc(Cl)ccc1N[S+](=O)([O-])c1ccc(Cl)s1
- AC50 viability [1]: 18.6 µM
- area under concentration-response curve [2]: 481
- area under concentration-response curve [3]: 530

Compound: CC1(C)C(N(O)C(=O)Nc2ccc(Cl)cc2)N(c2ccc(Cl)cc2)C(=O)N1CC(=O)N/N=C/C=C/c1ccc([N+](=O)[O-])o1 (stereo not given)
- AC50 viability [1]: 23.5 µM
- area under concentration-response curve [2]: 511
- area under concentration-response curve [3]: 561

Compound: OCc1ccc(-c2ccc(-c3ccc(CO)s3)o2)s1
- AC50 viability [1]: 37.2 µM
- area under concentration-response curve [2]: 507
- area under concentration-response curve [3]: 532

Compound: CN1CCN(CCOc2cc(OC3CCOCC3)c3c(Nc4c(Cl)ccc5c4OCO5)ncnc3c2)CC1
- AC50 viability [1]: 23.5 µM
- area under concentration-response curve [2]: 547
- area under concentration-response curve [3]: 548
